One series deals with mitochondrial ATP output. As to the kind of experiment: Bicep curls to failure (reps-to-failure) as proxy for ATP output. The class given is in vivo, human. Set-up: key to Latching: ↑: Up-latching is indicated by an up-arrow; ↓: down-latching by a down-arrow; —: others producing no significant effect are indicated by a dash. Conditions: for Latching: Table 1, up-/down-latching of IMM judged by reps-to-failure; for change in reps-to-failure from baseline: 100 mg dose, baseline 11 reps.

For series [1] the following is noted: in vivo; cited from earlier work.

Values joined by “and” are separate entries in the source; they are usually repeats but may differ in a detail not shown here. Identical values can stand only once. “Also recorded” adds a separate entry of the source. Like-named read-outs stand apart in the source and are kept apart here.

On to `O=C(O)CCC(=O)C(=O)O` [AKG, Alpha-ketoglutarate], for which, in the series with mitochondrial ATP output (in vivo), the “latching behaviour as described in words” value was “weak up-latcher”. Molecule `O=C(O)CCCCC(=O)O` [Adipic acid] gave a reps-to-failure after dose with mitochondrial ATP output (1 gram with 1 gram AAKG and sodium bicarbonate, from 11 reps, in 20 minutes) of 31 reps. Further, in the series on mitochondrial ATP output, the Latching entry is “↑”.

For `O=C(O)CCCCCCCC(=O)O` [Azelaic acid], the Latching result in the series with mitochondrial ATP output is listed as “↑”. Also, the reps-to-failure after dose in the series on mitochondrial ATP output (one gram, used alone, from 13, in 30 minutes) is 43 reps.

`c12c3c4c5c1c1c6c7c2c2c8c3c3c9c4c4c%10c5c5c1c1c6c6c%11c7c2c2c7c8c3c3c8c9c4c4c9c%10c5c5c1c1c6c6c%11c2c2c7c3c3c8c4c4c9c5c1c1c6c2c3c41` [C60, fullerene C60]: the subsequent reps-to-failure performance entry in the series on mitochondrial ATP output (FIG. 6 curve 624, 3 mg C60 in MCT oil taken at 49 reps after up-latchers and DHM) is on record as “almost flat”. As to `O=C(O)CC(O)(CC(=O)O)C(=O)O` [Citric acid], in the series on mitochondrial ATP output, the “latching behaviour as described in words” value was “strongest down-latchers; also recorded: strong down-latcher” and the Latching entry is reported as “↓”. Further, the reps-to-failure after dose in the series on mitochondrial ATP output (50 mg taken alone, from 20) is 11 reps. The reps-to-failure after dose in the series with mitochondrial ATP output (FIG. 11 point 1108, two grams neutralized, from baseline 22 reps, stays flat) was determined as 10 reps. For the same molecule, the “bicep curls to failure after dose” value in the series with mitochondrial ATP output (about 2 g neutralized by bicarbonate, from 24 rep baseline, at 15 and 30 minutes) was 11 reps. Further, the “half-life in the body” value in series [1] is “about 5 minutes”. Turning to `COC1=C(OC)C(=O)C(C/C=C(\C)CC/C=C(\C)CC/C=C(\C)CC/C=C(\C)CC/C=C(\C)CC/C=C(\C)CC/C=C(\C)CC/C=C(\C)CC/C=C(\C)CCC=C(C)C)=C(C)C1=O` [CoQ-10], in the series on mitochondrial ATP output, the Latching entry was “—”. For `CN(CC(=O)O)C(=N)N` [Creatine], in the series on mitochondrial ATP output, the “latching behaviour as described in words” value is recorded as “did not latch” and the Latching entry was “—”. As for `O=C1c2c(O)cc(O)cc2O[C@H](c2cc(O)c(O)c(O)c2)[C@H]1O` [DHM, Dihydromyricetin], the “latching behaviour as described in words” value with mitochondrial ATP output was “down-latching”. The “reps-to-failure after dosing on top of up-latching” value in the series on mitochondrial ATP output (FIG. 9 curve 924, dosed at point 922 after lactate/AAKG/PQQ, baseline 20 reps, then recovery) was “substantially below baseline”. As for `OC[C@@H](O)[C@@H](O)CO` [Erythritol], in the series on mitochondrial ATP output, the “latching behaviour as described in words” value is reported as “strong down-latchers” and the Latching entry is on record as “↓”. For the same molecule, the reps-to-failure after dose in the series on mitochondrial ATP output (FIG. 6 point 630, dosed at up-latched level of about 49 reps) turned out to be 11 reps.

In the case of `O=C(O)/C=C/C(=O)O` [Fumaric acid], in the series on mitochondrial ATP output, the “latching behaviour as described in words” value is listed as “one of the best up-latchers” and the Latching entry is “↑”. In the series on mitochondrial ATP output (FIG. 1, dosed singly, neutralized, baseline 12 reps), the “reps-to-failure curve compared with curve 124 of the fumaric acid/AAKG combination” value is listed as “much lower”. On to `OCC(O)CO` [Glycerol], for which, in the series with mitochondrial ATP output, the “latching behaviour as described in words” value is given as “strong down-latcher” and the Latching entry was “↓”. Moreover, the “reps-to-failure after being reduced” value with mitochondrial ATP output (3 g, separate trials) is 11 reps and 14 reps. For the same molecule, in the series with mitochondrial ATP output (5 g), the “reps-to-failure after being knocked down” value amounted to 14 reps. Also, the “reps-to-failure after dose relative to baseline” value in the series on mitochondrial ATP output (FIG. 3A point 373, 5 g, from up-latched level) is “down to baseline”. Besides, in the series on mitochondrial ATP output (FIG. 4, five grams, from 30 reps), the “reps-to-failure after dose (stabilized)” value is on record as “about 13 reps”.

Take `O=C(O)CO` [Glycolic acid]: the reps-to-failure after dose in the series with mitochondrial ATP output (.7 g, from 14 reps (after 5 g glycerol), in about 1 hour) is given as 28 reps. Moreover, the Latching result in the series on mitochondrial ATP output is “↑”. As for `CC(O)C(=O)O` (centres unmarked) [Lactic acid], in the series on mitochondrial ATP output (FIG. 3A points 360-362, after PQQ treatments), the “reps-to-failure relative to new baseline 350” value is given as “above baseline 350”. Moreover, the Latching result in the series on mitochondrial ATP output is “↑”. Moreover, the biological half-life entry in series [1] is “around 20 minutes”. As to `CC(C)=CCC/C(C)=C/C=C/C(C)=C/C=C/C(C)=C/C=C/C=C(C)/C=C/C=C(C)/C=C/C=C(\C)CCC=C(C)C` [Lycopene], the “bicep curls to failure after dose” value in the series on mitochondrial ATP output (FIG. 7, 100 mg, from baseline of 6 reps, 70 minutes) is 32 reps. Further, the Latching result with mitochondrial ATP output is recorded as “↑”. Regarding `O=C(O)CC(O)C(=O)O` (centres unmarked) [Malic acid], the Latching result with mitochondrial ATP output was “↑”. In the series with mitochondrial ATP output (as magnesium malate, from 10 reps (after 3 g glycerol and 1 g ethyl lactate), in 2 hours), the reps-to-failure after dose was found to be 21 reps. Moreover, the “reps-to-failure results compared with neutralized fumaric acid in FIG. 1” value in the series on mitochondrial ATP output (separate trials, neutralized) is given as “nearly identical”. For `O=C(O)C(O)c1ccccc1` (centres unmarked) [Mandelic acid], the reps-to-failure after dose in the series with mitochondrial ATP output (1 g of salt, from 14 reps (after 3 g glycerol)) was found to be 31 reps. Further, the Latching entry in the series on mitochondrial ATP output is recorded as “↑”.

Regarding `OC[C@@H](O)[C@@H](O)[C@H](O)[C@H](O)CO` [Mannitol], in the series with mitochondrial ATP output, the Latching result is “—”.

`O=C(O)c1cccnc1` [Niacin]: the “latching behaviour as described in words” value with mitochondrial ATP output is given as “down-latchers”. With `O=C(O)CC(=O)C(=O)O` [Oxaloacetic acid], in the series on mitochondrial ATP output, the Latching result is “↑”.

As for `O=C(O)c1cc(C(=O)O)c2c(n1)C(=O)C(=O)c1cc(C(=O)O)[nH]c1-2` [PQQ, Pyrroloquinoline quinone], the “effect on fission and fusion reps-to-failure curves” value in the series with mitochondrial ATP output (FIG. 3A point 340, PQQ increased 5-fold to 100 mg, with one gram AAKG, person after shingles) is “near instant merger of fission and fusion lines”. On to `O=C(O)CCCCCC(=O)O` [Pimelic acid], for which, in the series with mitochondrial ATP output, the Latching result was “↑”. Same read-out and setting: with `CC(=O)C(=O)O` [Pyruvate] the entry was “—”; with `Oc1ccc(C=Cc2cc(O)cc(O)c2)cc1` [Resveratrol], “↓”.

In the case of `O=C1NS(=O)(=O)c2ccccc21` [Saccharin], the Latching result in the series on mitochondrial ATP output was “.—”. As to `OC[C@@H](O)[C@@H](O)[C@H](O)[C@@H](O)CO` [Sorbitol], the Latching result in the series on mitochondrial ATP output is listed as “↓”.

On to `O=C(O)CCCCCCC(=O)O` [Suberic acid], for which, in the series with mitochondrial ATP output, the Latching result is “↑”. Turning to `O=C(O)CCC(=O)O` [Succinic acid], in the series on mitochondrial ATP output, the “latching behaviour as described in words” value was “indirect up-latcher” and the Latching result is given as “↑”. Further, the “peak reps-to-failure relative to fumaric and/or malic acids” value in the series on mitochondrial ATP output (combined with AAKG and a neutralizing base) was “about half”. The “delay of reps-to-failure peak” value in the series with mitochondrial ATP output (combined with AAKG and a neutralizing base, versus fumaric/malic acids) was “about 15 minutes”. The molecule `O=C(O)C(O)C(O)C(=O)O` (centres unmarked) [Tartaric acid] registered a reps-to-failure after dose with mitochondrial ATP output (2 g, from 11 reps (after 3 g glycerol)) of 21 reps. The Latching result in the series with mitochondrial ATP output is “↑”. Turning to `O=c1oc2cc(O)ccc2c2ccc(O)cc12` [Urolithin A], the Latching entry in the series with mitochondrial ATP output is reported as “↓”. With `CCCCOC(=O)C(C)O` (centres unmarked) [butyl lactate], the “latching behaviour as described in words” value with mitochondrial ATP output is given as “strong down-latchers”.

For the molecule `CCOC(=O)C(C)O` (centres unmarked) [ethyl lactate], in the series on mitochondrial ATP output, the “latching behaviour as described in words” value is “strong down-latchers”.

With `CN(C)c1ccc2nc3ccc(=[N+](C)C)cc-3sc2c1` [methylene blue, reference compound], the “change in reps-to-failure from baseline” value in the series on mitochondrial ATP output (at 15 minutes) and in the series on mitochondrial ATP output (at one hour) was “no change” in each case. Turning to `NC(=O)c1cccnc1` [nicotinamide], in the series on mitochondrial ATP output, the “latching behaviour as described in words” value is “down-latchers”. In the case of `CC1=C(/C=C/C(C)=C/C=C/C(C)=C/C=C/C=C(C)/C=C/C=C(C)/C=C/C2=C(C)C[C@@H](O)CC2(C)C)C(C)(C)C[C@H](O)C1` [zeaxanthin], in the series on mitochondrial ATP output, the “latching behaviour as described in words” value is given as “substantially non-latcher”. Moreover, the “maximum bicep curls to failure after dose” value in the series on mitochondrial ATP output (FIG. 7 point 706, from baseline of 9 reps, in 15 minutes, then fell back) came to 14 reps.

Source of the values: patent US20250221952A1, “METHODS AND COMPOSITIONS FOR LARGE MODIFICATIONS OF ATP OUTPUT BY INNER MITOCHONDRIAL MEMBRANE LATCHING” (priority 2025, published 2025).
